Paper PMC12192727, “Strategies to Develop Na,K-ATPase-α4 Inhibitors as Male Contraceptives” (International Journal of Molecular Sciences, 2025)
Like-named read-outs stand apart in the source and are kept apart here. One block for each compound: values may come before it.

Legend:
mouse sperm = assay: Mouse sperm total motility in vitro (CASA); type: cell-based; settings: for Emax: Mus musculus, Sperm, 1 h, nanomolar range concentration, read-out: Maximal Motility Inhibition (%); for Emax / Shape of inhibitory dose response on sperm motility: mouse sperm total motility
Procedure: To characterize the SAR of these compounds, we first evaluated their effects on total sperm motility in vitro. Sperm isolated from the cauda epididymis of mice were incubated with the test compounds in modified Whitten’s medium under non-capacitating conditions. Motility was assessed using a computer-assisted sperm analysis (CASA) system.
All experimental protocols involving animals used in this work were approved by the University of Kansas Medical Center Institutional Animal Care and Use Committee (ACUP number: 22-09-26, 10/2022). C57BL/6 mice were purchased from Harlan (Indianapolis, IN, USA). Spermatozoa were isolated from the cauda of adult mouse epididymis in Whitten’s medium, containing 100 mM NaCl, 4.7 mM KCl, 1.2 mM KH2PO4, 1.2 mM MgSO4, 5.5 mM glucose, 0.8 mM pyruvic acid, 4.8 mM lactic acid, and 40 mM Hepes, as previously described.
Spermatozoa (1 × 10^6 cells) were incubated at 37 °C in 100 μL of Whitten’s medium, with the addition of 1.7 mM CaCl2 and in the absence and presence of different amounts of the tested compounds for 60 min. Then, cells were labeled with the fluorescent nucleic acid stain SYTO 21, which allows for the tracking of the movement of the cell head. After 1 min of incubation with the dye, 5.5 μL aliquots from each sample were taken and placed into a glass cell chamber (Leja Products B.V., Nieuw-Vennep, The Netherlands). Sperm were maintained at 37 °C on a heated platform and viewed with an Olympus BX51 microscope (Olympus, Center Valley, PA, USA) through a 20× phase objective. Images of the moving sperm were captured using a CCD camera. Samples were analyzed by CASA using the Minitube SpermVision Digital Semen Evaluation system (version 3.5; Penetrating Innovations, Verona, WI, USA). An average of 200 cells/field were captured, at a rate of 30 frames per field, and a total of 10 fields in each sample were analyzed. Total sperm motility was obtained from sperm maintained in a non-capacitating medium, while for assessing the hyperactive pattern of motility, typical of sperm capacitation, cells were incubated in Whitten’s medium with the addition of 1.7 mM CaCl2, 25 mM sodium bicarbonate, and 0.5% bovine serum albumin.
(§1) Figure 2 Effect of simplified steroidal analogs on mouse sperm total motility. Sperm was isolated from the cauda epididymis and treated in the absence and presence of the indicated concentrations of each compound. After one hour of incubation, sperm motility was determined by CASA. Values are expressed as the mean ± SEM of three determinations.
as §1, with “4” for “2”, “non-steroidal small compounds” for “simplified steroidal analogs”, “1 h” for “one hour”

MDCK cell permeability = settings: dog, MDCK; for Papp A→B / recovery: MDCK cells; for Papp A→B: BSA 0% for controls, 0.5% for 13
Caco-2 cell permeability = type: in vitro ADME, human; settings: human; for Papp A→B / recovery: Caco-2, Caco-2 cells; for Papp A→B: read-out: Papp (A-B); for Papp B→A / efflux ratio: Caco-2 cells; for efflux ratio: Papp(B-A)/Papp(A-B)
Procedure: The in vitro permeability and potential to be transported by P-gp (P-glycoprotein) were determined in a Caco-2 or MDCK cell line. Values are reported for a mass recovery > 60%. The efflux ratio was determined as follows: P^app(B-A)/Papp(A-B). The experimental details are reported in the Supporting Information (Tables S2–S5).
The recovery can be determined using the following equation:
Recovery%=(VA×[drug]acceptor+VD×[drug]donor)/(VD×[drug]initial, donor)
Where VA is the volume (in mL) in the acceptor well (0.235 mL for Ap→Bl flux, and 0.075 mL for
Bl→Ap), VD is the volume (in mL) in the donor well (0.075 mL for Ap→Bl flux, and 0.235 mL for
The leakage of Lucifer Yellow, in unit of percentage (%), can be calculated using the following
%LY leakage = 100×[LY]acceptor×0.3/([LY]donor×0.1+[LY]acceptor×0.3)
LY leakage of <1% is acceptable to indicate the well-qualified MDCK/ Caco-2 monolayer.
Table S5 . The Assessment of Caco-2 Cell Monolayer Integrity
The apparent permeability coefficient (Papp), Efflux ratio (ER), recovery percentage, and LY leakage percentage can be
calculated for Caco-2 Cell drug transport assays using the above equations. […]

[1] = simplified steroid analogs, mouse sperm motility
[2] = non-steroidal small molecules, mouse sperm motility

SMILES: C[C@]12CC[C@H]3[C@@H](CC=C4C[C@@H](O)CC[C@@]43C)[C@@H]1CC[C@@H]2c1c[nH]nn1 [Compound 15, (3S,8S,9S,10R,13S,14S,17S)-10,13-Dimethyl-17-(1H-1,2,3-triazol-4-yl)-2,3,4,7,8,9,10,11,12,13,14,15,16,17-tetradecahydro-1H-cyclopenta[a]phenanthren-3-ol]
Emax (mouse sperm; simplified steroid analogs): 42%
Shape of inhibitory dose response on sperm motility (mouse sperm): monotonic inhibitory response
IC50 (mouse sperm; [1]): 0.019 nM
IC50 (pM) (mouse sperm; [1]): sub-nanomolar range

SMILES: C[C@]12CC[C@H](OC(=O)[C@@H](N)CCCCN)CC1=CCC1C2CC[C@@]2(C)C1CC[C@@H]2c1cn(Cc2ccccc2)nn1.Cl.Cl (stereo partly drawn) [Compound 19, (3S,10R,13S,17S)-17-(1-Benzyl-1H-1,2,3-triazol-4-yl)-10,13-dimethyl-2,3,4,7,8,9,10,11,12,13,14,15,16,17-tetradecahydro-1H-cyclopenta[a]phenanthren-3-yl L-Lysinate Dihydrochloride]
Emax (mouse sperm; simplified steroid analogs): ~37%
Shape of inhibitory dose response on sperm motility (mouse sperm): biphasic inhibition
IC50 (mouse sperm; [1]): 0.032 nM

SMILES: C[C@]12CC[C@H]3[C@@H](CC=C4C[C@@H](O)CC[C@@]43C)[C@@H]1CC[C@H]2n1cc(-c2ccccc2)nn1 [Compound 24, (3S,8R,9S,10R,13S,14S,17R)-10,13-Dimethyl-17-(4-phenyl-1H-1,2,3-triazol-1-yl)-2,3,4,7,8,9,10,11,12,13,14,15,16,17-tetradecahydro-1H-cyclopenta[a]phenanthren-3-ol]
Emax (mouse sperm; simplified steroid analogs): 50%
Shape of inhibitory dose response on sperm motility (mouse sperm): biphasic inhibition
IC50 (mouse sperm; [1]): 0.015 nM

SMILES: C[C@]12CC[C@H]3[C@@H](CC=C4C[C@H](N5CCOCC5)CC[C@@]43C)[C@@H]1CC[C@H]2n1cc(-c2ccccc2)nn1 [Compound 26, 4-((3R,8R,9S,10R,13S,14S,17R)-10,13-Dimethyl-17-(4-phenyl-1H-1,2,3-triazol-1-yl)-2,3,4,7,8,9,10,11,12,13,14,15,16,17-tetradecahydro-1H-cyclopenta[a]phenanthren-3-yl)morpholine]
Emax (mouse sperm; simplified steroid analogs): ~40%
Shape of inhibitory dose response on sperm motility (mouse sperm): biphasic inhibition
IC50 (mouse sperm; [1]): 0.031 nM

IC50 (mouse sperm; [2]): 0.023 nM
SMILES: C[C@]12CCC(=O)C=C1CC[C@@H]2c1cn(Cc2ccccc2)nn1 [Compound 33, (1S,7aR)-1-(1-Benzyl-1H-1,2,3-triazol-4-yl)-7a-methyl-1,2,3,6,7,7a-hexahydro-5H-inden-5-one]
Emax (mouse sperm; non-steroidal small molecules): 48%

IC50 (mouse sperm; [2]): 0.071 nM
SMILES: CC12CCC(=O)C=C1CCC2c1c[nH]nn1 [Compound 35, (1S,7aR)-7a-Methyl-1-(1H-1,2,3-triazol-4-yl)-1,2,3,6,7,7a-hexahydro-5H-inden-one]
Emax (mouse sperm; non-steroidal small molecules): 47%

IC50 (mouse sperm; [2]): 0.06 nM
SMILES: CC12CCC(=NN=C(N)N)C=C1CCCC2c1cn(Cc2ccccc2)nn1 (centres unmarked) [Compound 40, N’-(5-(1-Benzyl-1H-1,2,3-triazol-4-yl)-4a-methyl-4,4a,5,6,7,8-hexahydronaphthalen-2(3H)-ylidene)amidinohydrazone]
Emax (mouse sperm; non-steroidal small molecules): 49%

IC50 (mouse sperm; [2]): 0.037 nM
SMILES: CC12CCC(=NN=C(N)N)C=C1CCC2C=NN=C(N)N [Compound 41, (E+Z)-2-(((1S,7aR,E)-5-(2-Carbamimidoylhydrazineylidene)-7a-methyl-2,3,5,6,7,7a-hexahydro-1H-inden-1-yl)methylene)hydrazine-1-carboximidamide, reference compound]
Emax (mouse sperm; non-steroidal small molecules): 44%

IC50 (mouse sperm; [2]): 0.302 nM
SMILES: CC12CCC(=NN=C(N)N)C=C1CCCC2C=NN=C(N)N (centres unmarked) [Compound 42, (E+Z)-2-((6-(2-Carbamimidoylhydrazineylidene)-8a-methyl-1,2,3,4,6,7,8,8a-octahydronaphthalen-1-yl)methylene)hydrazine-1-carboximidamide]
Emax (mouse sperm; non-steroidal small molecules): 49%

Papp B→A (MDCK cell permeability): 3.29 ×10⁻⁶ cm/s
efflux ratio (MDCK cell permeability): 3.26
Papp A→B (MDCK cell permeability): 1.01 ×10⁻⁶ cm/s
recovery (MDCK cell permeability; Recovery (%) AP-BL): 84%
recovery (MDCK cell permeability; Recovery (%) BL-AP): 106%
Papp A→B (Caco-2 cell permeability): 0.63 ×10⁻⁶ cm/s
recovery (Caco-2 cell permeability; read-out: Recovery (%) AP-BL): 88.7%
recovery (Caco-2 cell permeability; read-out: Recovery (%) BL-AP): 107%
Papp B→A (Caco-2 cell permeability): 18.8 ×10⁻⁶ cm/s
efflux ratio (Caco-2 cell permeability): 30
SMILES: C[C@H]1O[C@@H](O[C@H]2[C@@H](O)C[C@H](O[C@H]3[C@@H](O)C[C@H](O[C@H]4CC[C@@]5(C)[C@H](CC[C@@H]6[C@@H]5C[C@@H](O)[C@]5(C)[C@@H](C7=CC(=O)OC7)CC[C@]65O)C4)O[C@@H]3C)O[C@@H]2C)C[C@H](O)[C@@H]1O [Digoxin]

Papp B→A (MDCK cell permeability): 17 ×10⁻⁶ cm/s
efflux ratio (MDCK cell permeability): 0.79
Papp A→B (MDCK cell permeability): 21.6 ×10⁻⁶ cm/s
recovery (MDCK cell permeability; Recovery (%) AP-BL): 83.5%
recovery (MDCK cell permeability; Recovery (%) BL-AP): 97.1%
SMILES: COCCc1ccc(OCC(O)CNC(C)C)cc1 (centres unmarked) [Metoprolol]

Papp A→B (Caco-2 cell permeability): 7.59 ×10⁻⁶ cm/s
recovery (Caco-2 cell permeability; read-out: Recovery (%) AP-BL): 71.4%
recovery (Caco-2 cell permeability; read-out: Recovery (%) BL-AP): 85%
Papp B→A (Caco-2 cell permeability): 24.3 ×10⁻⁶ cm/s
SMILES: COc1cc2nc(N3CCN(C(=O)c4ccco4)CC3)nc(N)c2cc1OC [Prazosin]

Papp A→B (Caco-2 cell permeability): 24.4 ×10⁻⁶ cm/s
recovery (Caco-2 cell permeability; read-out: Recovery (%) AP-BL): 72.8%
recovery (Caco-2 cell permeability; read-out: Recovery (%) BL-AP): 86.6%
Papp B→A (Caco-2 cell permeability): 16.4 ×10⁻⁶ cm/s
efflux ratio (Caco-2 cell permeability): 0.67
SMILES: CC(C)NCC(O)COc1cccc2ccccc12 (centres unmarked) [Propranolol]
